Converted amounts (≈) assume the structure as drawn. Counter-ions that a name gives are not always drawn. Like-named read-outs stand apart in the source and are kept apart here.
Tests used:
Stability as a solid = assay type: physicochemical
Solubility = assay type: physicochemical
Enterobacter cloacae = experiment: MIC, twofold serial broth dilution (Table I); assay type: cell-based; conditions: strain ISM 71/32, Tryptose Phosphate Broth, 37° C, 24 hours, read-out: Minimum inhibitory concentration (MIC)
Arizona sp. = experiment: MIC, twofold serial broth dilution (Table I); assay type: cell-based; conditions: strain ISM 67/9; Tryptose Phosphate Broth; 37° C, 24 hours; read-out: Minimum inhibitory concentration (MIC)
Shigella flexneri = experiment: MIC, twofold serial broth dilution (Table I); assay type: cell-based; conditions: strain ISM-LRP 40, Tryptose Phosphate Broth, 37° C, 24 hours, read-out: Minimum inhibitory concentration (MIC)
Description: (§1) In Table I the minimum inhibitory concentrations (MIC) of P-75123 against a variety of Gram-positive and Gram-negative bacteria are listed.

Shigella sonnei = experiment: MIC, twofold serial broth dilution (Table I); assay type: cell-based; conditions: strain ISM-LRP 5, Tryptose Phosphate Broth, 37° C, 24 hours, read-out: Minimum inhibitory concentration (MIC)
Description: as §1

Diplococcus pneumoniae = experiment: MIC, twofold serial broth dilution (Table I); assay type: cell-based; conditions: Streptococcus pneumoniae; strain Ty XXVII-LRP 53; Todd Hewitt Broth; 37° C, 24 hours; read-out: Minimum inhibitory concentration (MIC)
Description: as §1

Streptococcus mitis = experiment: MIC, twofold serial broth dilution (Table I); assay type: cell-based; conditions: ATCC9895, strain ATCC 9895 Ty V, Todd Hewitt Broth, 37° C, 24 hours, read-out: Minimum inhibitory concentration (MIC)
Citrobacter freundii = experiment: MIC, twofold serial broth dilution (Table I); assay type: cell-based
Klebsiella pneumoniae [1] = experiment: MIC against clinical isolates, broth dilution test (Table II); conditions: for MIC: Klebsiella pneumoniae, 24 h
Escherichia coli [2] = experiment: MIC, twofold serial broth dilution (Table I); assay type: cell-based; conditions: ATCC19138, strain ATCC 19138 0 group 6, Tryptose Phosphate Broth, 37° C, 24 hours, read-out: Minimum inhibitory concentration (MIC)
Proteus morganii = experiment: MIC, twofold serial broth dilution (Table I); assay type: cell-based; conditions: Morganella morganii; strain ISM-LRP 18; Mueller Hinton Broth; 37° C, 24 hours; read-out: Minimum inhibitory concentration (MIC)
Shigella dysenteriae = experiment: MIC, twofold serial broth dilution (Table I); assay type: cell-based; conditions: 24 h, read-out: Minimum inhibitory concentration (MIC)
Pseudomonas aeruginosa = experiment: MIC, twofold serial broth dilution (Table I); assay type: cell-based; conditions: strain ISM-LRP 9, Tryptose Phosphate Broth, 37° C, 24 hours, read-out: Minimum inhibitory concentration (MIC)
Proteus rettgeri = experiment: MIC, twofold serial broth dilution (Table I); assay type: cell-based; conditions: Providencia rettgeri; strain ISM-LRP 21; Mueller Hinton Broth; 37° C, 24 hours; read-out: Minimum inhibitory concentration (MIC)
Salmonella typhi = experiment: MIC, twofold serial broth dilution (Table I); assay type: cell-based; conditions: Salmonella enterica, 24 h, read-out: Minimum inhibitory concentration (MIC)
[3] = tested on: Enterobacter liquefaciens; experiment: MIC, twofold serial broth dilution (Table I); assay type: cell-based; conditions: strain ISM 65/33, Tryptose Phosphate Broth, 37° C, 24 hours, read-out: Minimum inhibitory concentration (MIC)
Escherichia coli [4] = experiment: Treatment of mice systemically infected with Escherichia coli (Table V); conditions: in Mus musculus, 168 h, read-out: ED50 per treatment
[5] = tested on: wide spectrum of microorganisms both Gram-positive and Gram-negative; experiment: In vitro antimicrobial activity (overall statement); assay type: cell-based
Brucella abortus = experiment: microbe, parasite or virus in culture; assay type: cell-based; conditions: 24 h, read-out: Minimum inhibitory concentration (MIC)
Pasteurella multocida = experiment: MIC, twofold serial broth dilution (Table I); assay type: cell-based; conditions: ATCC6588, strain ATCC 6588, Tryptose Broth, 37° C, 24 hours, read-out: Minimum inhibitory concentration (MIC)
Serratia marcescens = experiment: MIC, twofold serial broth dilution (Table I); assay type: cell-based; conditions: strain ISM 68/189, Mueller Hinton Broth, 37° C, 24 hours, read-out: Minimum inhibitory concentration (MIC)
Streptococcus bovis = experiment: MIC, twofold serial broth dilution (Table I); assay type: cell-based; conditions: Streptococcus equinus, ATCC15351; strain ATCC 15351; Todd Hewitt Broth; 37° C, 24 hours; read-out: Minimum inhibitory concentration (MIC)
Streptococcus uberis = experiment: MIC, twofold serial broth dilution (Table I); assay type: cell-based; conditions: ATCC9927, strain ATCC 9927, Todd Hewitt Broth, 37° C, 24 hours, read-out: Minimum inhibitory concentration (MIC)
Salmonella heidelberg = experiment: MIC against Ampicillin-resistant clinical isolates, broth dilution test (Table IV); conditions: Salmonella enterica, 24 h, read-out: Minimun inhibitory concentration (MIC)
Brucella suis = experiment: microbe, parasite or virus in culture; assay type: cell-based; conditions: 24 h, read-out: Minimum inhibitory concentration (MIC)
Staphylococcus aureus = experiment: MIC, twofold serial broth dilution (Table I); assay type: cell-based; conditions: 24 h, 37° C, read-out: Minimum inhibitory concentration (MIC)
Klebsiella pneumoniae [6] = conditions: in Mus musculus, 168 h, read-out: ED50 per treatment
[7] = tested on: systemically infected mice; experiment: In vivo activity in systemically infected mice (overall statement); design: species or system Charles River CD 1 female mice; conditions: treatment of systemically infected mice
Streptococcus faecalis = experiment: MIC, twofold serial broth dilution (Table I); assay type: cell-based; conditions: Enterococcus faecalis; strain ISM 66/54; Tryptose Phosphate Broth; 37° C, 24 hours; read-out: Minimum inhibitory concentration (MIC)
Salmonella essen = experiment: MIC against Ampicillin-resistant clinical isolates, broth dilution test (Table IV); conditions: Salmonella enterica, 24 h, read-out: Minimun inhibitory concentration (MIC)
Klebsiella pneumoniae [8] = experiment: MIC, twofold serial broth dilution (Table I); assay type: cell-based; conditions: strain ISM 68/67' 370 V', Tryptose Phosphate Broth, 37° C, 24 hours, read-out: Minimum inhibitory concentration (MIC)
Escherichia coli [9] = experiment: MIC against clinical isolates, broth dilution test (Table III); conditions: for MIC: Escherichia coli, 24 h
Proteus mirabilis = experiment: MIC, twofold serial broth dilution (Table I); assay type: cell-based; conditions: 37° C, 24 hours, read-out: Minimum inhibitory concentration (MIC)
Salmonella wien = experiment: MIC against Ampicillin-resistant clinical isolates, broth dilution test (Table IV); conditions: Salmonella enterica, 24 h
[10] = read-out: Minimum inhibitory concentration (MIC)

In the case of `Cn1nnnc1SCC1=C(C(=O)O)N2C(=O)C(NC(=O)Cn3cnc([N+](=O)[O-])c3)C2SC1` (stereo not shown) [sodium salt], the Stability (Stability as a solid) is reported as “stable as a solid” and the solubility (Solubility; sodium salt, water) is reported as ~500 mg/mL.

In the case of `Cn1nnnc1SCC1=C(C(=O)O)N2C(=O)C(NC(=O)Cn3cnc([N+](=O)[O-])c3)C2SC1` (stereo not shown) [P-75123, 7-1-(1H-4-nitroimidazolyl)acetyl!amino-3-5-(1H-1-methyltetrazolyl)thio!methyl-3-cephem-4-carboxylic acid], the MIC (Enterobacter cloacae) is reported as > 100 µg/mL, the MIC (Arizona sp.) is reported as 0.78 µg/mL (≈ 1.62 µM) and the MIC (Shigella flexneri) is reported as 0.78 µg/mL (≈ 1.62 µM). For the same compound, the MIC (Shigella sonnei) was 1.56 µg/mL (≈ 3.24 µM), the MIC (Diplococcus pneumoniae) was 0.097 µg/mL (≈ 0.201 µM) and the MIC (Streptococcus mitis) was 0.195 µg/mL (≈ 0.405 µM). It also gave an MIC (Citrobacter freundii; 24 h, read-out: Minimum inhibitory concentration (MIC), strain ISM 65/74, Tryptose Phosphate Broth, 37° C) of 1.56 µg/mL (≈ 3.24 µM), an MIC (Citrobacter freundii; strain ISM 69/30, Tryptose Phosphate Broth, 37° C, 24 hours, read-out: Minimum inhibitory concentration (MIC)) of 0.78 µg/mL (≈ 1.62 µM) and an MIC (Klebsiella pneumoniae [1]; [10]) of 1.56 µg/mL (≈ 3.24 µM). It also gave an MIC (Klebsiella pneumoniae [1]; read-out: Minimum inhibitory concentration (MIC), clinical isolate LRP 129) of 0.39 µg/mL (≈ 0.81 µM), an MIC (Klebsiella pneumoniae [1]; read-out: Minimum inhibitory concentration (MIC), clinical isolate LRP 130) of 6.25 µg/mL (≈ 13 µM) and an MIC (Klebsiella pneumoniae [1]; read-out: Minimum inhibitory concentration (MIC), clinical isolate LRP 131) of 3.12 µg/mL (≈ 6.48 µM). The MIC (Klebsiella pneumoniae [1]; read-out: Minimum inhibitory concentration (MIC), clinical isolate LRP 132) was 0.39 µg/mL (≈ 0.81 µM), the MIC (Klebsiella pneumoniae [1]; read-out: Minimum inhibitory concentration (MIC), clinical isolate LRP 133) was 0.78 µg/mL (≈ 1.62 µM) and the MIC (Klebsiella pneumoniae [1]; read-out: Minimum inhibitory concentration (MIC), clinical isolate LRP 135) was 3.12 µg/mL (≈ 6.48 µM). The MIC (Klebsiella pneumoniae [1]; read-out: Minimum inhibitory concentration (MIC), clinical isolate LRP 136) was 3.12 µg/mL (≈ 6.48 µM), the MIC (Klebsiella pneumoniae [1]; read-out: Minimum inhibitory concentration (MIC), clinical isolate LRP 137) was 0.78 µg/mL (≈ 1.62 µM) and the “Minimum inhibitory concentration (MIC)” value (Klebsiella pneumoniae [1]; clinical isolate LRP 134) was 1.56 µg/mL (≈ 3.24 µM). It also gave an MIC (Escherichia coli [2]) of 0.78 µg/mL (≈ 1.62 µM), an MIC (Proteus morganii) of 50 µg/mL (≈ 104 µM) and an MIC (Shigella dysenteriae) of 0.78 µg/mL (≈ 1.62 µM). For the same compound, the MIC (Pseudomonas aeruginosa) was > 100 µg/mL, the MIC (Proteus rettgeri) was 25 µg/mL (≈ 51.9 µM) and the MIC (Salmonella typhi) was 0.78 µg/mL (≈ 1.62 µM). For the same compound, the MIC [3] was 100 µg/mL (≈ 208 µM), the ED50 (Escherichia coli [4]) was 35 mg/kg and the “"in vitro" antimicrobial activity” value [5] was “high antimicrobial activity”. It also gave an MIC (Brucella abortus) of 25 µg/mL (≈ 51.9 µM), an MIC (Pasteurella multocida) of 0.39 µg/mL (≈ 0.81 µM) and an MIC (Serratia marcescens) of 100 µg/mL (≈ 208 µM). The MIC (Streptococcus bovis) was 0.049 µg/mL (≈ 0.102 µM), the MIC (Streptococcus uberis) was 0.097 µg/mL (≈ 0.201 µM) and the MIC (Salmonella heidelberg) was 1.56 µg/mL (≈ 3.24 µM). It also gave an MIC (Brucella suis) of 12.5 µg/mL (≈ 26 µM), an MIC (Staphylococcus aureus; strain ATTC 653P, Tryptose Phosphate Broth) of 0.195 µg/mL (≈ 0.405 µM) and an MIC (Staphylococcus aureus; strain ISM 72/10, Tryptose Phosphate Broth) of 0.78 µg/mL (≈ 1.62 µM). For the same compound, the ED50 (Klebsiella pneumoniae [6]) was 49 mg/kg, the “activity "in vivo"” value [7] was “very good activity” and the MIC (Streptococcus faecalis) was 100 µg/mL (≈ 208 µM). The Solubility in dimethylsulfoxide (Solubility; crystals, dimethylsulfoxide) was “soluble in dimethylsulfoxide”, the Solubility in water (Solubility; crystals, water) was “practically insoluble in water” and the MIC (Salmonella essen) was 1.56 µg/mL (≈ 3.24 µM). For the same compound, the MIC (Klebsiella pneumoniae [8]) was 0.78 µg/mL (≈ 1.62 µM), the MIC (Escherichia coli [9]; [10]) was 1.56 µg/mL (≈ 3.24 µM) and the MIC (Escherichia coli [9]; read-out: Minimum inhibitory concentration (MIC), clinical isolate LRP 87) was 3.12 µg/mL (≈ 6.48 µM). For the same compound, the MIC (Escherichia coli [9]; read-out: Minimum inhibitory concentration (MIC), clinical isolate LRP 110) was 0.78 µg/mL (≈ 1.62 µM), the MIC (Escherichia coli [9]; read-out: Minimum inhibitory concentration (MIC), clinical isolate LRP 143) was 0.78 µg/mL (≈ 1.62 µM) and the MIC (Escherichia coli [9]; read-out: Minimum inhibitory concentration (MIC), clinical isolate LRP 152) was 50 µg/mL (≈ 104 µM). The MIC (Escherichia coli [9]; read-out: Minimum inhibitory concentration (MIC), clinical isolate LRP 159) was 0.78 µg/mL (≈ 1.62 µM), the “Minimum inhibitory concentration (MIC)” value (Escherichia coli [9]; clinical isolate LRP 96) was 1.56 µg/mL (≈ 3.24 µM) and the “Minimum inhibitory concentration (MIC)” value (Escherichia coli [9]; clinical isolate LRP 150) was 1.56 µg/mL (≈ 3.24 µM). For the same compound, the “Minimum inhibitory concentration (MIC)” value (Escherichia coli [9]; clinical isolate LRP 151) was 1.56 µg/mL (≈ 3.24 µM), the “Minimum inhibitory concentration (MIC)” value (Escherichia coli [9]; clinical isolate LRP 154) was 1.56 µg/mL (≈ 3.24 µM) and the “Minimum inhibitory concentration (MIC)” value (Escherichia coli [9]; clinical isolate LRP 155) was 1.56 µg/mL (≈ 3.24 µM). For the same compound, the “Minimum inhibitory concentration (MIC)” value (Escherichia coli [9]; clinical isolate LRP 156) was 1.56 µg/mL (≈ 3.24 µM), the “Minimum inhibitory concentration (MIC)” value (Escherichia coli [9]; clinical isolate LRP 158) was 1.56 µg/mL (≈ 3.24 µM) and the “Minimum inhibitory concentration (MIC)” value (Escherichia coli [9]; clinical isolate LRP 163) was 1.56 µg/mL (≈ 3.24 µM). It also gave an MIC (Proteus mirabilis; ATCC10005, strain ATCC 10005, Mueller Hinton Broth) of 3.12 µg/mL (≈ 6.48 µM), an MIC (Proteus mirabilis; strain ISM 66/53, Mueller Hinton Broth) of 3.12 µg/mL (≈ 6.48 µM) and an MIC (Salmonella wien; read-out: Minimun inhibitory concentration (MIC), Ampicillin-resistant clinical isolate LRP 138) of 3.12 µg/mL (≈ 6.48 µM). It also gave an MIC (Salmonella wien; read-out: Minimun inhibitory concentration (MIC), Ampicillin-resistant clinical isolate LRP 140) of 6.25 µg/mL (≈ 13 µM) and an MIC (Salmonella wien; read-out: Minimun inhibitory concentration (MIC), Ampicillin-resistant clinical isolate LRP 141) of 6.25 µg/mL (≈ 13 µM).

From patent publication US4073903A, “3-Desacetoxymethyl-3- 5'(1-methyltetrazolyl)thio!methyl-7- 1-(4-nitr oimidazolyl)acetyl!aminocephalosporanic acid” (Pierrel S.p.A., priority 1975, dated 1978)
